The NIST ThermoML archive (doi:10.1016/j.tca.2011.08.002)

Test: refractive index (Na D-line) (dimensionless); xn = mol fraction of the nth substance listed
Details: 101 kPa, Liquid, Standard Abbe refractometry

C1CCC(NC2CCCCC2)CC1 [N-cyclohexylcyclohexanamine] + CCCCCO
refractive index
Details	288.15 K	293.15 K	298.15 K	303.15 K	308.15 K	313.15 K	318.15 K	323.15 K
x2 = 0	1.48636	1.48416	1.48198	1.47978	1.47761	1.47562	1.47347	1.47134
x2 = 0.0525	1.48486	1.48266	1.48047	1.47828	1.47608	1.47406	1.4719	1.46975
x2 = 0.1	1.48356	1.48135	1.47916	1.47694	1.47475	1.47258	1.47041	1.46826
x2 = 0.2006	1.47999	1.47776	1.47554	1.47333	1.47113	1.4689	1.46671	1.46457
x2 = 0.2999	1.47587	1.47364	1.47141	1.46918	1.46696	1.46472	1.46251	1.46034
x2 = 0.3985	1.47109	1.46884	1.4666	1.46437	1.46214	1.45985	1.45762	1.45547
x2 = 0.5001	1.46523	1.46298	1.46073	1.4585	1.45627	1.45396	1.45172	1.44954
x2 = 0.5999	1.45834	1.4561	1.45386	1.45162	1.44937	1.44702	1.4448	1.44263
x2 = 0.6992	1.45002	1.4478	1.44555	1.44334	1.44113	1.43878	1.43659	1.43439
x2 = 0.7993	1.43976	1.4376	1.43542	1.43327	1.43108	1.42876	1.42658	1.42439
x2 = 0.8997	1.42718	1.4251	1.42299	1.4209	1.41881	1.41655	1.41445	1.4123
x2 = 0.9495	1.41998	1.41796	1.41591	1.41383	1.41175	1.40963	1.40753	1.40539
